Experimental data: publication PMC11550998, “Novel 5-HT7 receptor antagonists modulate intestinal immune responses and reduce severity of colitis” (American Journal of Physiology - Gastrointestinal and Liver …, 2024)

Tests used:
D3 = target: T1, D3 (Homo sapiens, UniProt P35462); assay: PDSP selectivity profiling, D3; assay type: binding
T1 construct: NIMH Psychoactive Drug Screening Program (PDSP), assay service

α2B = target: T2, α2B (Homo sapiens, UniProt P18089); assay: PDSP selectivity profiling, α2B; assay type: binding
T2 construct: NIMH Psychoactive Drug Screening Program (PDSP), assay service
T2 sequence (P18089 whole entry): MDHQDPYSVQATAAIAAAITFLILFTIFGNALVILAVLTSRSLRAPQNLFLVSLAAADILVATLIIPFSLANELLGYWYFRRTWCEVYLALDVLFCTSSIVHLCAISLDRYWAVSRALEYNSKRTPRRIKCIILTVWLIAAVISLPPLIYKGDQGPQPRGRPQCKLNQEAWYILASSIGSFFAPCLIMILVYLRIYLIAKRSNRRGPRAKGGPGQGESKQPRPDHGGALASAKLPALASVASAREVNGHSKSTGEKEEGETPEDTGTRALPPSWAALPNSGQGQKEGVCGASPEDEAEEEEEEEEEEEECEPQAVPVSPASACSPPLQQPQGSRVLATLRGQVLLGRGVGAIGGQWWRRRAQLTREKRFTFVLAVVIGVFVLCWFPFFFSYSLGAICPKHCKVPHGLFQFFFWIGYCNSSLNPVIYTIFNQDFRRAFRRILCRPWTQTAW
Procedure: (§1) In vitro assessments of MC-170073, MC-20078, and MC-230079 activity at the following targets were determined using the assay systems available through the Psychoactive Drug Screening Program (PDSP). Detailed protocols for each assay are available at https://pdsp.unc.edu/pdspweb/?site=assays. Receptors 5-HT1A, 5-HT1B, 5-HT1D, 5-HT1E, 5-HT2A, 5-HT2B, 5-HT2C, 5-HT3, 5-HT5A, 5-HT6, 5-HT7, α1A, α1B, α1D, α2A, α2B, α2C, benzodiazepine, β1, β2, β3, GABA-A, H1, H2, H3, H4, M1, M2, M3, M4, M5, δ-opioid, κ-opioid, and µ-opioid and transporters dopamine, norepinephrine, and serotonin were evaluated.

H1 = target: T3, H1 (Homo sapiens, UniProt P35367); assay: PDSP selectivity profiling, H1; assay type: binding
T3 construct: NIMH Psychoactive Drug Screening Program (PDSP), assay service
T3 sequence (P35367 whole entry): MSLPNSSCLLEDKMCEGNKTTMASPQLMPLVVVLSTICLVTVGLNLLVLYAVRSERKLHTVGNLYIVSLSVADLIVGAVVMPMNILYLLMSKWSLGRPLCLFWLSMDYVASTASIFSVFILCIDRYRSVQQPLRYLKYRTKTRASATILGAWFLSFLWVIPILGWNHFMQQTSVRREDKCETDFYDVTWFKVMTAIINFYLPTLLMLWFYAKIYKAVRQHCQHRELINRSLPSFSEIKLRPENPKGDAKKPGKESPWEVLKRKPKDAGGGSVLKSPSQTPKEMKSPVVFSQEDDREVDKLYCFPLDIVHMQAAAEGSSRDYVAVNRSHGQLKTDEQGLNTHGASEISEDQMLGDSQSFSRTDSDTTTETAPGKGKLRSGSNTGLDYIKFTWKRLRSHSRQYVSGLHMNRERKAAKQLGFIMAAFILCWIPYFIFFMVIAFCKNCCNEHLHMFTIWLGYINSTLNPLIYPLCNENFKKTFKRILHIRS
Procedure: as §1

α2C = target: T4, α2C (Homo sapiens, UniProt P18825); assay: PDSP selectivity profiling, α2C; assay type: binding
T4 construct: NIMH Psychoactive Drug Screening Program (PDSP), assay service
T4 sequence (P18825 whole entry): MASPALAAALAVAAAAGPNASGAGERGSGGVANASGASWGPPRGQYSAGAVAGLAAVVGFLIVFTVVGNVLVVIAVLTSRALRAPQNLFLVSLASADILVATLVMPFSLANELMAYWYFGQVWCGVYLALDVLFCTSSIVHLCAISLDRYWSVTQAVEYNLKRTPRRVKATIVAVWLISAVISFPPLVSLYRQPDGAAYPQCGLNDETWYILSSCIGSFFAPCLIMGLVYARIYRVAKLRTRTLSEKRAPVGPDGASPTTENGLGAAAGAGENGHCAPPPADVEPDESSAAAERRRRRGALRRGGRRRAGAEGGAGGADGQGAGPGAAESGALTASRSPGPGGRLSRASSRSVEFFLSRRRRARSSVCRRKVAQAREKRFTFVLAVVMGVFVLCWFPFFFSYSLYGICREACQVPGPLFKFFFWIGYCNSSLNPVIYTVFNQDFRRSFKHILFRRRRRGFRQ
Procedure: as §1

[1] = Plasma protein binding by equilibrium dialysis; assay type: in vitro ADME; details: mouse
Procedure: Plasma protein binding was performed by using equilibrium dialysis (ED) ([17]). ED was performed using a 96-well equilibrium dialyzer with a molecular weight (MW) cutoff of 5 K (Harvard Apparatus, Holliston, MA) and placed in a dual-plate rotator set to maximum speed (Harvard Apparatus, Holliston, MA) located in a 37°C incubator with a 10% CO2 environment. After 22 h of dialysis, buffer and plasma were removed from each side of the dialysis plate. Samples were mixed with equal volumes of the opposite matrix (plasma or buffer) and stored at −20°C for future analyte quantitation.
Plasma concentrations were determined using an LC-MS/MS method. Briefly, 100-µL acetonitrile with an internal standard solution (Diltiazem, 0.1 μg/mL) was added to 50-µL plasma or tissue homogenate. After being vortexed for 1 min, the mixture was centrifuged at 3,000 g for 5 min. LC-MS/MS analysis was carried out using a high-performance liquid chromatography system consisting of an Agilent 1100 system interfaced to an API4000 SCIEX triple-quadrupole tandem mass spectrometer (Applied Biosystems/MDS Sciex, Foster City, CA). […] The detection and quantification of analytes were performed with the m/z transition 347/191 for MC-170073, MC-230078, and MC-230079, and m/z 415/178 for diltiazem.

[2] = tested on: chronic DSS-induced colitis; assay: Chronic DSS-induced colitis model (three cycles of DSS); assay type: in vivo, C57BL/6 mice; details: 10 mg/kg ip during last cycle
Excerpt: C57BL/6 (Taconic, Cambridge City, IN) for the DSS model of colitis, as well as C57BL/6 and Rag1^−/− mice (Jackson Laboratory, Bar Harbor, ME) for the T-cell transfer model, were kept in sterilized, filter-topped cages under specific pathogen-free conditions upon arrival and fed autoclaved food. Male mice aged 8–10 wk were used for all experiments. Mice were acclimatized for 7 days before the start of any experiments. All experiments were approved by the animal ethics committee of McMaster University and conducted under Canadian guidelines for animal research.
For induction of acute colitis, DSS (molecular mass 40 kDa; ICN; Biomedicals Incorporate, Solon, OH) was added to autoclaved drinking water at a final concentration of 4 or 5% wt/vol for 5 days. For the induction of chronic colitis, DSS was added to normal drinking water at a final concentration of 4% for 5 days, followed by 7 days of water. This cycle was repeated twice thereafter, with 2% DSS. Control mice received vehicle or normal drinking water.
For acute DSS-induced colitis, C576BL/6 mice were treated with MC-170073 (10 mg/kg of body wt) or vehicle (10% DMSO in normal saline) via intraperitoneal injection once daily for 6 days, starting 1 day before the beginning of DSS. In a separate experiment, C57BL/6 mice were orally administered with MC-230078 (10 mg/kg) or vehicle twice daily for 5 days, starting from the beginning of DSS. […]
Disease activity index (DAI) is a combined score of weight loss, stool consistency, and fecal bleeding and was blindly assessed using a previously published scoring system ([19]). […] DAI was measured across all days of DSS treatment. Macroscopic damage scores were blindly scored using a previously published scoring system for DSS-induced colitis ([19]).
Colonic myeloperoxidase (MPO) levels were measured following a published protocol ([19]). […] The absorbance was measured at 450 nm by a spectrophotometer (model EL808, BioTek). MPO level was expressed in units per milligram of tissue, where 1 U is defined as the quantity of enzyme able to convert 1 μmol hydrogen peroxide to water per minute at room temperature.
Segments of the proximal colon were washed with PBS, fixed in 10% neutral-buffered formalin, washed with ethanol, and embedded in paraffin. Hematoxylin-eosin (H&E)-stained colonic tissue sections were scored using a previously published system ([19]): crypt architecture (normal = 0; severe crypt distortion with loss of entire crypts = 3), degree of inflammatory cell infiltration (normal = 0; dense inflammatory infiltrate = 3), muscle thickening (base of crypt sits on the muscularis mucosae = 0; marked muscle thickening present = 3), goblet cell depletion (absent = 0; present = 1), and crypt abscess (absent = 0; present = 1). […]

α2A = target: T5, α2A (Homo sapiens, UniProt P08913); assay: PDSP selectivity profiling, α2A; assay type: binding
T5 construct: NIMH Psychoactive Drug Screening Program (PDSP), assay service
T5 sequence (P08913 whole entry): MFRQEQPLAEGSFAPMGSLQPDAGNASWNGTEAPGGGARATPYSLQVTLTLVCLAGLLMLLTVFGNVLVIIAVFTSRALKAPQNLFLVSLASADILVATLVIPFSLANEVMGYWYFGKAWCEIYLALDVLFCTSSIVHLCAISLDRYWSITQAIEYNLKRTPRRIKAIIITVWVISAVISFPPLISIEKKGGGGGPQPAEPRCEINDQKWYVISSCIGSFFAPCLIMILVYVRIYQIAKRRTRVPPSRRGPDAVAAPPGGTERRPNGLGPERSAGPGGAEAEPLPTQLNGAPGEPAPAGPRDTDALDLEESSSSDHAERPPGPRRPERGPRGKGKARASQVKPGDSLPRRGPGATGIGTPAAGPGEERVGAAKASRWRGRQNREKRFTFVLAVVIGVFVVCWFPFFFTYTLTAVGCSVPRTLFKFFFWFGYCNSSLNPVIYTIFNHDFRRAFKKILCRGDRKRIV
Procedure: as §1

T1 sequence (P35462 whole entry): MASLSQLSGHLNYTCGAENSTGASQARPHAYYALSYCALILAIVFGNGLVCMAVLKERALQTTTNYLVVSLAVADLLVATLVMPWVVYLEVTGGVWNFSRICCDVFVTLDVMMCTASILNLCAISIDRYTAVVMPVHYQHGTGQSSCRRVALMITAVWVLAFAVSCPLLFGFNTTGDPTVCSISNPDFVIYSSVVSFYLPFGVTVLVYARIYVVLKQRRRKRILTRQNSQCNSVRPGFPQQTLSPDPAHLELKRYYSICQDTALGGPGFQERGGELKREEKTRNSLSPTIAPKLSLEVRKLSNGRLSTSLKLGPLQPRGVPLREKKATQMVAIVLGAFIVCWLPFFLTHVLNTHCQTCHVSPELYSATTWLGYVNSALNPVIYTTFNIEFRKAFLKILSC

`CCC1(CC)CC(CCN2CCN(c3ccc(O)cc3)CC2)OC1=O` (stereo not shown) [MC-170073] gave a Ki (D3) of 1230 nM, a Ki (α2B) of 493 nM and a Ki (H1) of 915 nM. For the same compound, the Ki (α2C) was 3600 nM, the fraction unbound at 22 h [1] was 0.6 and the “colonic IL-1β level” value [2] was “lower levels”. The “colonic MPO level” value [2] was “lower levels”, the histological score [2] was “downregulation” and the macroscopic score [2] was “downregulation”. For the same compound, the Ki (α2A) was 3480 nM.
